“And” between values parts separate entries of the source, which are not always exact repeats. Equal values may be shown once. After the bases stand the sugars from the 5' end (letter, count) and the backbone: PS all phosphorothioate, else s phosphorothioate and o phosphodiester by linkage. Methylation of C is not given here. e = 2'-O-(2-methoxyethyl) (MOE); k = constrained ethyl (cEt); d = 2'-deoxy (DNA)
Molecular target: IRF4
Conditions: ASO, MM.1R, 0.0625 µM

| Sequence | target mRNA inhibition [%] |
| --- | --- |
| ACCATATTGGAAACCA (sugars k3 d10 k3, PS) | -12 |

Same assay, conditions: ASO, MM.1R, 0.074 µM

| Sequence | target mRNA inhibition [%] |
| --- | --- |
| ACCATATTGGAAACCA (sugars k3 d10 k3, PS) | -11 |

Same assay, conditions: ASO, MM.1R, 0.222 µM

| Sequence | target mRNA inhibition [%] |
| --- | --- |
| ACCATATTGGAAACCA (sugars k3 d10 k3, PS) | -18 |

Same assay, conditions: ASO, MM.1R, 0.25 µM

| Sequence | target mRNA inhibition [%] |
| --- | --- |
| ACCATATTGGAAACCA (sugars k3 d10 k3, PS) | -6 |

Same assay, conditions: ASO, MM.1R, 0.666 µM

| Sequence | target mRNA inhibition [%] |
| --- | --- |
| ACCATATTGGAAACCA (sugars k3 d10 k3, PS) | -1 |

Same assay, conditions: ASO, MM.1R, 1 µM

| Sequence | target mRNA inhibition |
| --- | --- |
| ACCATATTGGAAACCA (sugars k3 d10 k3, PS) | 3% |
| AACGGCCTGGAGGTGA (sugars k3 d10 k3, PS) | 1% |
| CTTTATAGTAGGTAAG (sugars k3 d10 k3, PS) | -1% |
| GCCGAAGTCAACAGGA (sugars k3 d10 k3, PS) | -17% |
| ACCTCAGTTTGTGAAG (sugars kkdddddddddkdkdk, PS) | -3% |
| ACTTGCATCCATGTCA (sugars k3 d10 k3, PS) | 35% |
| CTTTCCCATGGTTACT (sugars k3 d10 k3, PS) | 8% |
| TTATATACTGGTTGGT (sugars kddddddddddkekek, PS) | 22% |
| GCTTCAAGACAGGTCT (sugars k3 d10 k3, PS) | 29% |
| TACTGTTACCGATGCT (sugars k2 d9 e3 k2, PS) | 29% and 8% |
| AGAACTTGCTAAGTCT (sugars k3 d10 k3, PS) | -34% |
| ACTGTTACCGATGCTT (sugars kkdddddddddekeke, PS) | 23% and 37% |
| GGAGGATCATAAAGGA (sugars k3 d10 k3, PS) | 32% |

Same assay, conditions: ASO, MM.1R, 2 µM

| Sequence | target mRNA inhibition [%] |
| --- | --- |
| ACCATATTGGAAACCA (sugars k3 d10 k3, PS) | 13 |

Same assay, conditions: ASO, MM.1R, 4 µM

| Sequence | target mRNA inhibition [%] |
| --- | --- |
| ACCATATTGGAAACCA (sugars k3 d10 k3, PS) | 34 |

Same assay, conditions: ASO, SK-MEL-28, 4 µM

| Sequence | target mRNA inhibition |
| --- | --- |
| ACCATATTGGAAACCA (sugars k3 d10 k3, PS) | 74% |
| TTGAAAGACTAACTGG (sugars k3 d10 k3, PS) | 20% |
| TGCTTGAGGTTTTCCT (sugars k3 d10 k3, PS) | 80% and 76% |
| CTACAAAATGCCTCCA (sugars k3 d10 k3, PS) | 42% |
| GGCCCGGGCGCATCCC (sugars k3 d10 k3, PS) | 5% |
| ACGGACGGAGGCGGCA (sugars k3 d10 k3, PS) | 11% |
| ACACAGCCTCGCCCTC (sugars k3 d10 k3, PS) | 20% |
| TCTTGAATAGAGGAAT (sugars k3 d10 k3, PS) | 42% |
| CCTCAGTTTGTGAAGC (sugars k3 d10 k3, PS) | 69% |
| GCTTACTGTGATTCTG (sugars k3 d10 k3, PS) | 34% |
| GCTAAAGGAGTGCAGG (sugars k3 d10 k3, PS) | 7% |
| AAACGACAAGTGGCGC (sugars k3 d10 k3, PS) | 21% |
| AGACCAGGATTCGCCA (sugars k3 d10 k3, PS) | 33% |
| AGCAAACCCTGCACTC (sugars k3 d10 k3, PS) | 8% |
| TCAGATACACACCCTC (sugars k3 d10 k3, PS) | 37% |
| AATTAAAGAGCGCATT (sugars k3 d10 k3, PS) | 17% |
| TTCCTGTAACAGGCTA (sugars k3 d10 k3, PS) | 63% and 77% |
| TTGTCCTCTGGGTAGG (sugars k3 d10 k3, PS) | 30% |
| TGTTACTTTCAAATCG (sugars k3 d10 k3, PS) | 48% |
| GCGCATCCCCTGGGCG (sugars k3 d10 k3, PS) | -4% |
| AGTTTACTAACTGGCT (sugars k3 d10 k3, PS) | 63% |
| AACCAGCACAGTTCTC (sugars k3 d10 k3, PS) | -18% |
| CGACAGTCCGGTTAGC (sugars k3 d10 k3, PS) | 11% |
| CTTTGATGAGCAGATC (sugars k3 d10 k3, PS) | 12% |
| ACAATAAAATGTCACG (sugars k3 d10 k3, PS) | 29% |
| ATCAGATACACACCCT (sugars k3 d10 k3, PS) | -8% |
| GGCCTTGCCAGTGGTG (sugars k3 d10 k3, PS) | -12% |
| CCAAAGGGTTCAGTGT (sugars k3 d10 k3, PS) | 26% |
